# According to patent publication US6365549B2, “Methods of blocking an ethylene response in plants using cyclopropene derivatives” (North Carolina State University, priority 1999, dated 2002):
# Tests used:
# Format in all cases: in vivo
# [1] = system: Patio variety tomato seedlings; assay: Tomato epinasty test, volatile gas treatment; settings: ethylene 10 ppm v/v, scale of 0 to 10, 10 complete protection, 0 no protection
# Description: The test procedure is designed to determine the ability of an compound according to the present invention to block the epinastic growth response induced by ethylene in tomato plants when the compound is administered either as a volatile gas or as a component of a spray solution. Treatment chambers are of an appropriate size for the test plants and are airtight. Each is fitted with a reusable septum to be used for injection of ethylene. Test plants are Patio variety tomato seedlings planted two plants per three inch square plastic pot. Volatile gas treatment entails placing two pots of Patio var. tomatoes into a polystyrene 4.8 L volume treatment chamber along with one-half (upper or lower section) of a 50×9 mm plastic Petri dish containing a Gelman filter pad. The appropriate amount of experimental compound, dissolved in 1.0 ml acetone, is pipetted onto the filter pad and the chamber immediately sealed. Four hours later ethylene gas equal to 10 ppm v/v final concentration is injected into the sealed chamber. Sixteen hours later the chambers are opened in an exhaust hood, allowed to air and the plants scored visually for the degree of protection against ethylene-induced epinasty conferred by the experimental compound when compared to ethylene treated and untreated controls on a scale of 0 to 10. A rating of 10 means complete protection. A rating of 0 means no protection from the effects of ethylene.
# banana [2] = assay: Time of protection (insensitivity to ethylene) of bananas, short-chain cyclopropenes; settings: saturating amount (at least 10 times minimum) for 24 hours, daily challenge with 333 μl/l ethylene 12-15 hours
# Description: To obtain the time of protection, bananas were exposed to a saturating amount of the compound for 24 hours (this was done as above and at least 10 times the minimum protection amount was used). After exposure, bananas were removed from the jars and each day individual bananas were exposed to 333 pill of ethylene for 12-15 hours. The day the bananas responded to ethylene was recorded as the protection time.
# banana [3] = assay: Minimum concentration protecting bananas from 333 μl/l ethylene (short-chain cyclopropenes injected as gas); settings: 24 hours exposure to compound as gas in 3-liter jar, then 333 μl/l ethylene 12-15 hours, observed for ripening
# Description: To obtain the minimum concentration that protected bananas from 333 μl/l of ethylene, compounds described in U.S. Pat. No. 5,518,988 to Sisler et al. were applied to bananas according to the methods setforth herein. A known amount of an active compound was injected as a gas into a 3-liter jar containing a banana. The jar was sealed and the banana was removed after 24 hours. At the end of exposure, the banana was treated with 333 pill of ethylene in a 3-liter jar for 12-15 hours. It was then observed for ripening. The minimum concentration is the minimum concentration that protected the banana from 333 μl/l of ethylene. Ten microliters/liter of ethylene is usually considered to be a saturating amount.
Compound,"Protection against ethylene-induced epinasty, rating ([1]; Gas 10 ppm)","Protection against ethylene-induced epinasty, rating ([1]; Gas 1000 ppm)",further results
1-Pentyloxyethyl-cyclopropene [Compound 15],10,–,–
1-ethylcyclopropene [1-ethylcyclopropene (1-ECP)],–,–,Time of Insensitivity (banana [2]): 12 days; Minimum Concentration (banana [3]): 4 nl/l
1-methylcyclopropene [1-methylcyclopropene (1-MCP)],–,–,Time of Insensitivity (banana [2]): 12 days; Minimum Concentration (banana [3]): 0.7 nl/l
"CON=C(C)CCCCCCC1=CC1 (single isomer, unassigned) [Compound 47, 8-Cycloprop-1-enyl-octan-2-one O-methyl Oxime]",9.5,–,–
"CCCCC1=CC1 [1-butylcyclopropene (1-BCP), 1-butylcyclopropene]",–,–,Time of Insensitivity (banana [2]): 12 days; Minimum Concentration (banana [3]): 3 nl/l
"CCCC1=CC1 [1-propylcyclopropene (1-PCP), 1-propylcyclopropene]",–,–,Time of Insensitivity (banana [2]): 12 days; Minimum Concentration (banana [3]): 6 nl/l
"CCCCCCCCC1C=C1 [Compound 2, 3-Octylcyclopropene]",0,10,–
"COCCCCCCCC1=CC1 [Compound 3, 1-(7-Methoxyheptyl)-cyclopropene]",9.5,–,–
"CCCCCC#CCCCCC1=CC1 [Compound 4, 1-(Undec-5-ynl)-cyclopropene]",10,–,–
"OCCCCCCCC1=CC1 [Compound 5, 1-(7-Hydroxyheptyl)-cyclopropene]",0,10,–
"CC(=O)OCCCCCCCC1=CC1 [Compound 6, 1-(7-Acetoxyheptyl)-cyclopropene]",0,10,–
"O=C(O)CCCCCCC1=CC1 [Compound 7, 7-Cycloprop-1-enyl-heptanoic Acid]",3,8,–
"CC(C)N.O=C(O)CCCCCCC1=CC1 [Compound 8, 7-Cycloprop-1-enyl-heptanoic Acid Isopropylamine Salt]",0,–,"Protection against ethylene-induced epinasty, rating ([1]; Gas 500 ppm): 8"
"CCOC(=O)CCCCCCC1=CC1 [Compound 9, 7-Cycloprop-1-enyl-heptanoic Acid Ethyl Ester]",4,–,–
"N#CCCCCCCCC1=CC1 [Compound 10, 1-(7-Cyanoheptyl)-cyclopropene]",2,10,–
"CCN(CC)CCCCCCCC1=CC1 [Compound 11, 1-(7-N,N-Diethylaminoheptyl)-cyclopropene]",3,10,–
"CC(=O)O.CCN(CC)CCCCCCCC1=CC1 [Compound 12, 1-(7-N,N,-Diethylammoniumheptyl)-cyclopropene Acetate]",2,10,–
"CC[N+](C)(CC)CCCCCCCC1=CC1.[I-] [Compound 13, 1-(7-N,N,N-Diethylmethylammoniumheptyl)-cyclopropene Iodide]",6,–,–
"CCCCCCOCC1=CC1 [Compound 14, 1-Hexyloxymethyl-cyclopropene]",10,–,–
"CCCCCC1(CCCCC)C=C1 [Compound 16, 3,3-Dipentyl-cyclopropene]",0,10,–
"CCC=CCC1=C(CCCCC)C1 [Compound 17, 1-Pent-2-enyl-2-pentyl-cyclopropene]",0,10,–
"CCC=CCC1=CC1(CCCCC)CCCCC [Compound 18, 1-Pent-2-enyl-3,3-dipentyl-cyclopropene]",0,10,–
"C=CCCCCCCC1=CC1 [Compound 19, 1-(Oct-7-enyl)-cyclopropene]",10,–,–
"CC(C)(O)CCC1=CC1 [Compound 20, 4-(1-Cyclopropenyl)-2-methylbutan-2-ol]",0,8,–
"CCCCCCCCC1=C(CCCCCCCC(=O)OC)C1 [Compound 21, Methyl Sterculate]",5,9,–

Compound,"Protection against ethylene-induced epinasty, rating ([1]; Gas 10 ppm)","Protection against ethylene-induced epinasty, rating ([1]; Gas 1000 ppm)",further results
CCCCCCCCCC1=CC1 [Compound 24],9.5,–,–
CCCCCCCCCCC1=CC1 [Compound 25],9,–,–
CCCCCCCC1=CC1 [Compound 26],10,–,–
CCCCCCCCCCCC1=CC1 [Compound 27],10,–,–
CCCCC(CC)CCC1=CC1 (stereo not shown) [Compound 28],9,–,–
CCCCCCCCCCCCCC1=CC1 [Compound 29],3.5,10,–
COCCOCCOCC1=CC1 [Compound 30],3,10,–
CCCCCC1=CC1 [Compound 31],10,–,–
CCCCCC(C)CC1=CC1 (stereo not shown) [Compound 32],9.5,–,–
CCC(=O)OCCC1=CC1 [Compound 33],0,10,–
CC(C)CCCCCC1=CC1 [Compound 34],10,–,–
CC(CCC1=CC1)CC(C)(C)C (stereo not shown) [Compound 35],10,–,–
FC(F)(F)CCCCC1=CC1 [Compound 37],10,–,–
CCCCCCCCCCCCCCCC1=CC1 [Compound 38],4.5,10,–
CCCCCCCCCCCCC1=CC1 [Compound 40],4,10,–
CCCCN(CCCC)CC1=CC1 [Compound 41],3,10,–
CCCCCCCCCCCCCCC1=CC1 [Compound 42],2,10,–
CC(C)(C)CCC1=CC1 [Compound 43],10,–,–
CCCCCCC1=CC1CCCCCC (stereo not shown) [Compound 44],0,10,–
CCCCCC1=C(CCCCC)C1 [Compound 45],0,10,–
"CC(=O)CCCCCCC1=CC1 [Compound 46, 8-Cycloprop-1-enyl-octan-2-one]",3,9,–
"CCN(CC)C(=O)CCCCCCC1=CC1 [Compound 48, 7-Cycloprop-1-enyl-heptanoic Acid Diethylamide]",0,7,–
Hex-5-yne 2-octylcycloprop-2-ene-1-carboxylate [Compound 22],0,–,"Protection against ethylene-induced epinasty, rating ([1]; Gas 750 ppm): 9"
cyclopropene [cyclopropene (CP)],–,–,Time of Insensitivity (banana [2]): 12 days; Minimum Concentration (banana [3]): 0.7 nl/l
